Measured values taken from patent US11161856B2 (H. Lundbeck A/S, priority 2017, dated 2021).

Experiments:
[1] = molecular target: T1, ABHD6 (Mus musculus, UniProt Q8R2Y0); assay: In vitro competitive activity-based protein profiling, mouse brain proteome (ABHD6); assay type: biochemical; settings: mouse brain proteome; concentration not given (μM)
T1 construct: Brain; from tissue; host or cells: mouse brain proteome
T1 sequence (Q8R2Y0 1-336): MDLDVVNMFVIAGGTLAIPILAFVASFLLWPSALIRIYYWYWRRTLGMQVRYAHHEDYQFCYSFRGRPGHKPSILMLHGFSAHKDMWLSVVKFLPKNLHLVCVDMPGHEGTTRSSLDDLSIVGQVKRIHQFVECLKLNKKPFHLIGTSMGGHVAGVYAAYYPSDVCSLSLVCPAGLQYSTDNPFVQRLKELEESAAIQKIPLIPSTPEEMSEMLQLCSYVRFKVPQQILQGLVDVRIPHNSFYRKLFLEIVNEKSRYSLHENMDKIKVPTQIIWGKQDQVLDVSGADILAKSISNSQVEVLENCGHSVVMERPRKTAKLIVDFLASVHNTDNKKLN
Description: [The source words this procedure for another target and reports this target under the same test.] In Vitro Competitive Activity-Based Protein Profiling.
Proteomes (human prefrontal cortex or cell membrane fractions) (50 μL, 1.0 mg/mL total protein concentration) were preincubated with varying concentrations of inhibitors at 37° C. After 30 min, FP-Rh or HT-01 (1.0 μL, 50 μM in DMSO) was added and the mixture was incubated for another 30 min at room temperature. Reactions were quenched with SDS loading buffer (15 μL-4×) and run on SDS-PAGE.

[2] = molecular target: T2, MGLL (Mus musculus, UniProt O35678); assay: In vitro competitive activity-based protein profiling, mouse brain proteome (MGLL); assay type: biochemical; settings: for % Inh MGLL Brain (Mouse, μM): concentration not given (μM)
T2 construct: Brain; from tissue; host or cells: mouse brain proteome
T2 sequence (O35678 1-303): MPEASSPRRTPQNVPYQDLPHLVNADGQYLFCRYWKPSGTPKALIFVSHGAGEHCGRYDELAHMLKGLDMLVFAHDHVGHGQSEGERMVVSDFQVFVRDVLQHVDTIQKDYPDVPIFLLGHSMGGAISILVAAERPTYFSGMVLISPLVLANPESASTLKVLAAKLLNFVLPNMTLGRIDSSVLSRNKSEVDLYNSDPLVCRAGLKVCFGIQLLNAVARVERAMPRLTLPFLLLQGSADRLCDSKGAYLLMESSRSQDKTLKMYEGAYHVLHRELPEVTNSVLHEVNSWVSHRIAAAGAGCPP

| Compound | % Inh ABHD6 Brain (Mouse, μM) [1] | % Inh MGLL Brain (Mouse, μM) [2] | inhibition at 10 µM ([2]; at 10 uM, read-out: % Inh MGLL Brain (Mouse)) [%] |
| --- | --- | --- | --- |
| CS(=O)(=O)N1CC2(CCN(c3cc(C(F)(F)F)ccc3CN3CCN(C(=O)OC(C(F)(F)F)C(F)(F)F)CC3)CC2)C1 [Example 211, 1,1,1,3,3,3-Hexafluoropropan-2-yl 4-(2-(2-(methylsulfonyl)-2,7-diazaspiro[3.5]nonan-7-yl)-4-(trifluoiomethyl)benzyl) piperazine-1-carboxylate] | ### (### is ≥75%) | ### (### is ≥75%) |  |
| CS(=O)(=O)N1CC2(CCN(c3cc(Cl)ccc3CN3CCN(C(=O)OC(C(F)(F)F)C(F)(F)F)CC3)CC2)C1 [Example 212, 1,1,1,3,3,3-Hexafluoropropan-2-yl 4-(4-chloro-2-(2-(methylsulfonyl)-2,7-diazaspiro[3.5]nonan-7-yl)benzyl)piperazine-1-carboxylate] | ## (## is between 25 and 75%) | ### (### is ≥75%) |  |
| CC(=O)N1CC2(CCN(c3cc(Cl)ccc3CN3CCN(C(=O)OC(C(F)(F)F)C(F)(F)F)CC3)CC2)C1 [Example 213, 1,1,1,3,3,3-Hexafluoropropan-2-yl 4-(2-(2-acetyl-2,7-diazaspiro[3.5]nonan-7-yl)-4-chlorobenzyl)piperazine-1-carboxylate] | ## (## is between 25 and 75%) | ### (### is ≥75%) |  |
| CN1CCCC12CCN(c1cc(Cl)ccc1CN1CCN(C(=O)OC(C(F)(F)F)C(F)(F)F)CC1)CC2 [Example 214, 1,1,1,3,3,3-Hexafluoropropan-2-yl 4-(4-chloro-2-(1-methyl-1,8-diazaspiro[4.5]decan-8-yl)benzyl)piperazine-1-carboxylate] | # (# is ≤25%) | ### (### is ≥75%) |  |
| CN1CCCC12CCN(c1cc(C(F)(F)F)ccc1CN1CCN(C(=O)OC(C(F)(F)F)C(F)(F)F)CC1)CC2 [Example 215, 1,1,1,3,3,3-Hexafluoropropan-2-yl 4-(2-(1-methyl-1,8-diazaspiro[4.5]decan-8-yl)-4-(trifluoromethyl)benzyl) piperazine-1-carboxylate] | # (# is ≤25%) | ### (### is ≥75%) |  |
| CC(=O)N1CC2(CCN(c3cc(C(F)(F)F)ccc3CN3CCN(C(=O)OC(C(F)(F)F)C(F)(F)F)CC3)CC2)C1 [Example 216, 1,1,1,3,3,3-Hexafluoropropan-2-yl 4-(2-(2-acetyl-2,7-diazaspiro[3.5]nonan-7-yl)-4-(trifluoromethyl)benzyl) piperazine-1-carboxylate] | ## (## is between 25 and 75%) | ### (### is ≥75%) |  |
| CS(=O)(=O)N1CCc2cccc(CN3CCC4(CC3)CCN(C(=O)OC(C(F)(F)F)C(F)(F)F)C4)c2C1 [Example 217, 1,1,1,3,3,3-Hexafluoropropan-2-yl 8-((2-(methylsulfonyl)-1,2,3,4-tetrahydroisoquinolin-8-yl)methyl)-2,8-diazaspiro[4.5]decane-2-carboxylate] | ### (### is ≥75%) | ### (### is ≥75%) |  |
| CC(=O)N1CC2(CCN(c3ccccc3CN3CCC34CCN(C(=O)OC(C(F)(F)F)C(F)(F)F)CC4)C2)C1 [Example 228, 1,1,1,3,3,3-Hexafluoropropan-2-yl 1-(2-(2-acetyl-2,6-diazaspiro[3,4]octan-6-yl)benzyl)-1,7-diazaspiro[3.5]nonane-7-carboxylate] | # (# is ≤25%) | ### (### is ≥75%) |  |
| CC(=O)N1CC2(CCN(c3ccccc3CN3CCCCC34CCN(C(=O)OC(C(F)(F)F)C(F)(F)F)CC4)C2)C1 [Example 229, 1,1,1,3,3,3-Hexafluoropropan-2-yl 1-(2-(2-acetyl-2,6-diazaspiro[3,4]octan-6-yl)benzyl)-1,9-diazaspiro[5.5]undecane-9-carboxylate] | # (# is ≤25%) | ## (## is between 25 and 75%) |  |
| CC(=O)N1CC2(CCN(c3ccccc3CN3CCCC34CN(C(=O)OC(C(F)(F)F)C(F)(F)F)C4)C2)C1 [Example 230, 1,1,1,3,3,3-Hexafluoropropan-2-yl 5-(2-(2-acetyl-2,6-diazaspiro[3,4]octan-6-yl)benzyl)-2,5-diazaspiro[3.4]octane-2-carboxylate] | # (# is ≤25%) | ## (## is between 25 and 75%) |  |
| CC(=O)N1CC2(CCN(c3ccccc3CN3CCCCC34CN(C(=O)OC(C(F)(F)F)C(F)(F)F)C4)C2)C1 [Example 231, 1,1,1,3,3,3-Hexafluoropropan-2-yl 5-(2-(2-acetyl-2,6-diazaspiro[3.4]octan-6-yl)benzyl)-2,5-diazaspiro[3.5]nonane-2-carboxylate] | ## (## is between 25 and 75%) | ## (## is between 25 and 75%) |  |
| CS(=O)(=O)N1CCC2(CCN(c3cc(Cl)cc(CN4CCCC45CN(C(=O)OC(C(F)(F)F)C(F)(F)F)C5)c3)CC2)C1 [Example 232] | ### (### is ≥75%) |  | 25 to 75 |
| CS(=O)(=O)N1CCC2(CCN(c3cc(CN4CCCC45CN(C(=O)OC(C(F)(F)F)C(F)(F)F)C5)cc(C(F)(F)F)c3)CC2)C1 [Example 233, 1,1,1,3,3,3-Hexafluoropropan-2-yl 5-(3-(2-(methylsulfonyl)-2,8-diazaspiro[4.5]decan-8-yl)-5-(trifluoromethyl)benzyl)-2,5-diazaspiro[3.4]octane-2-carboxylate] | ## (## is between 25 and 75%) | ### (### is ≥75%) |  |
| CC(=O)N1CCC2(CCN(c3cc(Cl)cc(CN4CCCC45CN(C(=O)OC(C(F)(F)F)C(F)(F)F)C5)c3)CC2)C1 [Example 234, 1,1,1,3,3,3-Hexafluoropropan-2-yl 5-(3-(2-acetyl-2,8-diazaspiro[4.5]decan-8-yl)-5-chlorobenzyl)-2,5-diazaspiro[3.4]octane-2-carboxylate] | ### (### is ≥75%) | # (# is ≤25%) |  |
| CC(=O)N1CCC2(CC1)CCN(c1cc(Cl)cc(CN3CCCC34CN(C(=O)OC(C(F)(F)F)C(F)(F)F)C4)c1)C2 [Example 236, 1,1,1,3,3,3-Hexafluoroprupan-2-yl 5-(3-(8-acetyl-2,8-diazaspiro[4.5]decan-2-yl)-5-chlorobenzyl)-2,5-diazaspiro[3.4]octane-2-carboxylate] | ### (### is ≥75%) | ### (### is ≥75%) |  |
| CS(=O)(=O)N1CCC2(CCN(c3cc(Cl)cc(CN4CCCC45CN(C(=O)OC(C(F)(F)F)C(F)(F)F)C5)c3)C2)CC1 [Example 237, 1,1,1,3,3,3-Hexafluoropropan-2-yl 5-(3-chloro-5-(8-(methylsulfonyl)-2,8-diazaspiro[4.5]decan-2-yl)benzyl)-2,5-diazaspiro[3.4]octane-2-carboxylate] | ## (## is between 25 and 75%) | ### (### is ≥75%) |  |
